Test results: patent US20210246157A1, “CAMPTOTHECIN DERIVATIVES AND PREPARATION METHODS AND APPLICATIONS THEREOF” (priority 2018, published 2021)
≈ marks a conversion by molar mass, not a printed value. Read-outs that look alike come from different tables or passages of the source.

Legend:
143B = assay: Cytotoxicity test (MTT, 72 h); details: Homo sapiens, read-out: 50% Inhibiting Concentration value (IC50)
Experimental: (§2) In order to investigate the antitumor activities of the compounds, a variety of tumor cell lines for test are selected. Cells at logarithmic growth period are inoculated in a 96-well plate overnight, then drugs with a certain gradient concentrations are added, and incubation is carried out in a cell culture chamber (5% CO2, 37° C.) for 72 h.

K562 = assay: Cytotoxicity test (MTT, 72 h); details: Homo sapiens, K562, 72 h, read-out: 50% Inhibiting Concentration value (IC50)
Experimental: as §2

MDA-MB-231 = assay: Cytotoxicity test (MTT, 72 h); details: Homo sapiens, MDA-MB-231, 72 h, read-out: 50% Inhibiting Concentration value (IC50)
Experimental: as §2

[1] = Multi-dose in vivo antitumor activity study, mouse weight (Example 20); parameters: species or system mice; details: caudal vein once every 2 days
Experimental: (§1) The drugs are administered through the caudal veins of mice once every 2 days for a total of 7 times.
At the end of the treatment cycle, the orbital venous blood of the mice is collected for later blood routine test, the mice are killed by cervical dislocation method, and tumors are removed immediately and photographed. From day 0, the mice in each group are weighed every three days, and the weights are recorded. The weight average value of each group is calculated, and mouse weight variation curve is drawn according to statistical data. At the end of the treatment cycle, tumors are removed from anesthetized mice immediately and weighted, and the tumor weight of each group is recorded. The tumor inhibition rate (%) is calculated according to the following formula: […]

SW-480 = assay: Cytotoxicity test (MTT, 72 h); details: Homo sapiens, SW480, 72 h, read-out: 50% Inhibiting Concentration value (IC50)
Experimental: (§3) Cells at logarithmic growth period are inoculated in a 96-well plate overnight, then drugs with a certain gradient concentrations are added, and incubation is carried out in a cell culture chamber (5% CO2, 37° C.) for 72 h.

[2] = system: colon cancer cells SW-480; assay: In vivo antitumor activity, tumor volume (Example 19); parameters: species or system mice; details: for Mouse Tumor Volume: 12.30 mg/kg i.v. once every three days, average, n = 6
[3] = Solubility test, equilibrium method, UV-visible spectrophotometry; format: physicochemical; details: thermodynamic from solid
Experimental: The solubility test is carried out by equilibrium method. […] An appropriate amount of the compound is weighed and dissolved in 1 mL of methanol solution to prepare a control solution with a certain concentration (C0). The concentration of test solution is calculated according to the following formula: Cx=(Ax/A0)C0, wherein Cx is concentration of test solution, Ax is absorbance of test solution, C0 is concentration of control solution, and A0 is absorbance of control solution.

H1975 = assay: Cytotoxicity test (MTT, 72 h); details: Homo sapiens, NCI-H1975, 72 h, read-out: 50% Inhibiting Concentration value (IC50)
Experimental: as §2

SKOV-3 = assay: Cytotoxicity test (MTT, 72 h); details: Homo sapiens, SK-OV-3, 72 h, read-out: 50% Inhibiting Concentration value (IC50)
Experimental: as §3

TPC-1 = assay: Cytotoxicity test (MTT, 72 h); details: Homo sapiens, TPC1, 72 h, read-out: 50% Inhibiting Concentration value (IC50)
Experimental: as §3

A549 = assay: Cytotoxicity test (MTT, 72 h); details: Homo sapiens, A549, 72 h, read-out: 50% Inhibiting Concentration value (IC50)
Experimental: as §2

HepG2 = assay: Cytotoxicity test (MTT, 72 h); details: Homo sapiens, HepG2, 72 h, read-out: 50% Inhibiting Concentration value (IC50)
Experimental: as §2

ECA-109 = assay: Cytotoxicity test (MTT, 72 h); details: Homo sapiens, ECa-109, 72 h, read-out: 50% Inhibiting Concentration value (IC50)
Experimental: as §2

tumor = assay: Multi-dose in vivo antitumor activity, tumor volume (Example 20); parameters: species or system mice; details: for Mouse Tumor Volume: caudal vein once every 2 days
Experimental: as §1
Tumor volume is measured every three days from day 0. The maximum diameter (a) of the tumor is measured first, and then the longest radial line (b) perpendicular to the maximum diameter is measured, using mm as unit. Tumor volume is calculated according to the following formula: […]

PC3 = assay: Cytotoxicity test (MTT, 72 h); details: Homo sapiens, PC-3, 72 h, read-out: 50% Inhibiting Concentration value (IC50)
Experimental: as §2

Hela = assay: Cytotoxicity test (MTT, 72 h); details: Homo sapiens, read-out: 50% Inhibiting Concentration value (IC50)
Experimental: as §2

[4] = day 0, high-dose group (H) 12.30 mg/kg
[5] = day 0, low-dose group (L) 3.075 mg/kg
[6] = day 0, medium-dose group (M) 6.15 mg/kg
[7] = day 3, high-dose group (H) 12.30 mg/kg
[8] = day 3, low-dose group (L) 3.075 mg/kg
[9] = day 3, medium-dose group (M) 6.15 mg/kg
[10] = day 6, high-dose group (H) 12.30 mg/kg
[11] = day 6, low-dose group (L) 3.075 mg/kg
[12] = day 6, medium-dose group (M) 6.15 mg/kg
[13] = day 9, high-dose group (H) 12.30 mg/kg
[14] = day 9, low-dose group (L) 3.075 mg/kg
[15] = day 9, medium-dose group (M) 6.15 mg/kg
[16] = day 12, high-dose group (H) 12.30 mg/kg
[17] = day 12, low-dose group (L) 3.075 mg/kg
[18] = day 12, medium-dose group (M) 6.15 mg/kg
[19] = day 15, high-dose group (H) 12.30 mg/kg
[20] = day 15, low-dose group (L) 3.075 mg/kg
[21] = day 15, medium-dose group (M) 6.15 mg/kg
[22] = day 18, high-dose group (H) 12.30 mg/kg
[23] = day 18, low-dose group (L) 3.075 mg/kg
[24] = day 18, medium-dose group (M) 6.15 mg/kg
[25] = day 21, high-dose group (H) 12.30 mg/kg
[26] = day 21, low-dose group (L) 3.075 mg/kg
[27] = day 21, medium-dose group (M) 6.15 mg/kg

## CCc1c2c(nc3ccc(OC(=O)NCCOCc4cn(CCO[C@H]5O[C@@H](CO)[C@H](O)[C@@H](O)[C@@H]5O)nn4)cc13)-c1cc3c(c(=O)n1C2)COC(=O)[C@]3(O)CC [Compound 67]
143B
  IC50: 5.61 µM
K562
  IC50: 196 nM
MDA-MB-231
  IC50: 876 nM
[1]; [4]
  Mouse Weight: 17.04 g
[1]; [5]
  Mouse Weight: 16.18 g
[1]; [6]
  Mouse Weight: 18.28 g
[1]; [7]
  Mouse Weight: 16.15 g
[1]; [8]
  Mouse Weight: 16.28 g
[1]; [9]
  Mouse Weight: 17.29 g
[1]; [10]
  Mouse Weight: 16.88 g
[1]; [11]
  Mouse Weight: 15.76 g
[1]; [12]
  Mouse Weight: 16.82 g
[1]; [13]
  Mouse Weight: 16.57 g
[1]; [14]
  Mouse Weight: 16.28 g
[1]; [15]
  Mouse Weight: 17.18 g
[1]; [16]
  Mouse Weight: 16.06 g
[1]; [17]
  Mouse Weight: 16.03 g
[1]; [18]
  Mouse Weight: 16.74 g
[1]; [19]
  Mouse Weight: 16.32 g
[1]; [20]
  Mouse Weight: 16.04 g
[1]; [21]
  Mouse Weight: 15.82 g
[1]; [22]
  Mouse Weight: 17.36 g
[1]; [23]
  Mouse Weight: 16.17 g
[1]; [24]
  Mouse Weight: 16.27 g
[1]; [25]
  Mouse Weight: 16.78 g
[1]; [26]
  Mouse Weight: 16.48 g
[1]; [27]
  Mouse Weight: 16.84 g
SW-480
  IC50: 251 nM
[2]; day 0
  Mouse Tumor Volume: 227.31 mm^3
[2]; day 3
  Mouse Tumor Volume: 126.54 mm^3
[2]; day 6
  Mouse Tumor Volume: 142.84 mm^3
[2]; day 9
  Mouse Tumor Volume: 104.75 mm^3
[2]; day 12
  Mouse Tumor Volume: 73.72 mm^3
[2]; day 15
  Mouse Tumor Volume: 43.74 mm^3
[2]; day 18
  Mouse Tumor Volume: 12.46 mm^3
[2]; day 21
  Mouse Tumor Volume: 11.38 mm^3
[2]; dosage two-thirds of the molar fraction of CPT-11
  inhibition rates on colon cancer cell SW-480 compared with CPT-11 (in words): significantly higher inhibition rates
[3]; aqueous buffer, PBS pH 7.4, read-out: Solubility in PBS (pH = 7.4)
  solubility: 2110 µg/mL (≈ 2750 µM)
[3]; aqueous with cosolvent or surfactant or cyclodextrin, 0.1% aqueous solution of Tween-80, read-out: Solubility in 0.1% Tween-80
  solubility: 1480 µg/mL (≈ 1930 µM)
[3]; saline or isotonic, normal saline, read-out: Solubility in Normal Saline (NS)
  solubility: 3350 µg/mL (≈ 4370 µM)
[3]; water, read-out: Solubility in Water
  solubility: 1260 µg/mL (≈ 1650 µM)
H1975
  IC50: 6.73 µM
SKOV-3
  IC50: 1260 nM
TPC-1
  IC50: 8.08 µM
A549
  IC50: 2420 nM
HepG2
  IC50: 1050 nM
ECA-109
  IC50: 4.32 µM
tumor; [4]
  Mouse Tumor Volume: 121.62 mm^3
tumor; [5]
  Mouse Tumor Volume: 125.58 mm^3
tumor; [6]
  Mouse Tumor Volume: 161.01 mm^3
tumor; [7]
  Mouse Tumor Volume: 91.15 mm^3
tumor; [8]
  Mouse Tumor Volume: 194.43 mm^3
tumor; [9]
  Mouse Tumor Volume: 168.50 mm^3
tumor; [10]
  Mouse Tumor Volume: 96.67 mm^3
tumor; [11]
  Mouse Tumor Volume: 197.42 mm^3
tumor; [12]
  Mouse Tumor Volume: 208.68 mm^3
tumor; [13]
  Mouse Tumor Volume: 103.36 mm^3
tumor; [14]
  Mouse Tumor Volume: 278.06 mm^3
tumor; [15]
  Mouse Tumor Volume: 220.90 mm^3
tumor; [16]
  Mouse Tumor Volume: 110.74 mm^3
tumor; [17]
  Mouse Tumor Volume: 420.38 mm^3
tumor; [18]
  Mouse Tumor Volume: 295.90 mm^3
tumor; [19]
  Mouse Tumor Volume: 133.88 mm^3
tumor; [20]
  Mouse Tumor Volume: 498.90 mm^3
tumor; [21]
  Mouse Tumor Volume: 378.20 mm^3
tumor; [22]
  Mouse Tumor Volume: 116.64 mm^3
tumor; [23]
  Mouse Tumor Volume: 587.60 mm^3
tumor; [24]
  Mouse Tumor Volume: 404.02 mm^3
tumor; [25]
  Mouse Tumor Volume: 103.48 mm^3
tumor; [26]
  Mouse Tumor Volume: 624.45 mm^3
tumor; [27]
  Mouse Tumor Volume: 394.44 mm^3
tumor; high-dose groups, same dosage (10 mg/kg), p<0.001
  tumor inhibition effects of the high-dose groups compared with CPT-11 (in words): better than that of positive control group CPT-11
tumor; low, medium and high dose
  dose dependence of tumor inhibition (in words): dose-dependent
PC3
  IC50: 2020 nM
Hela
  IC50: 2910 nM
